Bounds are passed on as bounds.

Data set [1] addresses T1, MAGL enzyme (Homo sapiens, UniProt Q99685).
T1 sequence (Q99685 1-303): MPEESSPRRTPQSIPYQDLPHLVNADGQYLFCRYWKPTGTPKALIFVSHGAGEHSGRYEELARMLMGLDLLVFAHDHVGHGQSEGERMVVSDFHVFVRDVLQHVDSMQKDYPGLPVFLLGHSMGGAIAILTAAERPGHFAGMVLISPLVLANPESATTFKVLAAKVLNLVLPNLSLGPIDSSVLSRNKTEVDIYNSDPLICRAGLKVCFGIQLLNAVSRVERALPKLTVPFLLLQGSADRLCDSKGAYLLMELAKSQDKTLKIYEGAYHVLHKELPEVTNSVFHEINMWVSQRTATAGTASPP
Description: MAGL reversible inhibition assay (washout), Example 22. The class given is biochemical. Set-up: % MAGL activity returning after washout: concentration or dose not given beside the values. The following applies: for degree to which MAGL enzymatic activity returned following washout of test compounds: pre-washout compound concentration 1 μM; for % MAGL activity returning after washout: relative to control (no inhibitor before washout), immediately following 30 minute washout. The procedure:
The reversible mechanism of MAGL inhibition of a test compound of Formula (I) can be determined. Flag-tagged MAGL enzyme will be immobilized on anti-Flag beads. Immobilized enzyme will be incubated+/−inhibitor at a dose that produces complete inhibition. Colorimetric substrate (4-NPA) will be added and the reaction monitored on a plate reader for 30 minutes to verify complete inhibition. Immobilized enzyme will then be washed thoroughly to remove the inhibitor, and fresh substrate will be added. The reaction will be monitored for an additional 30 minutes; returning enzymatic activity will indicate reversibility of inhibition. […]
For some test compounds, % activity returning after washout may be less than 100%/if complete compound unbinding takes longer than 30 minutes.

The test system of data set [2] is Acute Post-Operative Pain (Brennan) mice model. The experiment in a line: Acute Post-Operative Pain (Brennan) mice model, Example 26. The class given is in vivo, Mus Musculus C57BL/6. The following applies: 40 mg/kg, IP. From the text:
The aim of this experiment was to evaluate effect of the test compounds Compound 74 and JZL-184 in Acute Post-Operative Pain (Brennan) mice model. • Mouse model: Mus Musculus & C57BL/6, male, 6-8 weeks • End points: mechanical allodynia and brain 2-AG (optional)
(§1) • Animals was anaesthetized under Isoflorane anesthesia. • Using aseptic conditions, prepared the plantar aspect of left hind paw with a 10% povidone-iodine solution and place the paw through a hole in a sterile cloth drape. Made a 0.5-cm longitudinal incision through skin and fascia of the paw with a no. 11 scalpel blade, beginning 0.2 cm from the proximal edge of the heel and extending toward the digits. • Elevated the underlying muscle with small curved forceps and incised longitudinally with the scalpel blade, keeping the muscle origin and insertion intact. • After homeostasis with gentle pressure, apposed the skin with 5-0 slik sutures. Cover the wound site.

The subject of data set [3] is Post-Operative Pain (Brennan) mouse model. The experiment in a line: Chronic treatment in Post-Operative Pain (Brennan) mouse model, Example 27. The format is in vivo, Mus Musculus C57BL/6. The following applies: 40 mg/kg, IP, single dose.
Description: The aim of this experiment was to evaluate effect of the test compounds Compound 74 and JZL-184 in after Chronic treatment in a Post-Operative Pain (Brennan) mouse model. • Mouse model: Mus Musculus & C57BL/6, male, 6-8 weeks • End points: mechanical allodynia and body weight
as §1

In data set [4] the target is T2, human recombinant FAAH (Homo sapiens, UniProt O00519).
T2 construct: purchased Cayman kit Item No. 10005196; FAAH enzyme 700302
T2 sequence (O00519 1-579): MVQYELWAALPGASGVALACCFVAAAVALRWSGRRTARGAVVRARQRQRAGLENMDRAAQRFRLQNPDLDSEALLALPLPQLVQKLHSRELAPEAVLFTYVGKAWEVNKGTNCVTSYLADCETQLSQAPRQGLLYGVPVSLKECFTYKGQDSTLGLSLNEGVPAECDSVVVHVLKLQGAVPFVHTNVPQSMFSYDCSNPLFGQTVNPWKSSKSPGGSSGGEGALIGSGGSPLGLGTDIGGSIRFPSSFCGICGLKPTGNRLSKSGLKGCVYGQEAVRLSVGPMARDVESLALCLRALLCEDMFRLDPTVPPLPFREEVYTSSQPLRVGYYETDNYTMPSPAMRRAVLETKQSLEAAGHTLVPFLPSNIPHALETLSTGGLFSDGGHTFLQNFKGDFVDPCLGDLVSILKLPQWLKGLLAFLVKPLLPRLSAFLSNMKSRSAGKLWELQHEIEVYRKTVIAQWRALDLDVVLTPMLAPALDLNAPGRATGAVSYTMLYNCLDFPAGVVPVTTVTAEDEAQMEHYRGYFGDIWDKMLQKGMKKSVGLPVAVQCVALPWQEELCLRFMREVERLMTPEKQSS
Description: FAAH counter screen (Cayman FAAH Inhibitor Screening Assay Kit), Example 21. The format is biochemical. The protocol:
Comparative compound potency at FAAH can be obtained with the following assay.
MAGL inhibitor compounds were also counter-screened for FAAH inhibition potency using the following assay. Assessment of FAAH inhibition was performed using Fatty Acid Amide Hydrolase Inhibitor Screening Assay Kit (Cayman Item No. 10005196) following manufacture's instruction with some modifications. The kit utilizes human recombinant FAAH and the fluorescent substrate, AMC Arachidonoyl amide (AAMCA). 5 μL of assay buffer (125 mM Tris, pH 9.0, 1 mM EDTA, i.e. ethylenediaminetetraacetic acid) was added to a 384-well black plate (Corning, 3573). Test compounds and control inhibitor JZL-195 (Cayman Chemical, 13668) were tested in 10-concentration IC50 mode with 3-fold serial dilution at a starting concentration of 100 μM and 10 μM, respectively. 300 nL or 30 nL of test compounds were delivered into a 384-well black plate (Corning, 3573) using a Labcyte Echo, followed by addition of 15 μL of FAAH enzyme (Cayman, 700302) in assay buffer. After a 5-minute pre-incubation at room temperature, 10 μL of AAMCA was added in assay buffer to start the reaction. Final concentration of FAAH enzyme is not specified and AAMCA substrate was used at the 20 uM. After these dilutions, the final concentration of the test compounds ranged from 100 μM to 5.08 nM or 10 μM down to 0.508 nM. The reaction was allowed to progress for 60 minutes, while the plate was read on an Envision plate reader at an Ex/Em of 350/460 nm with readings every minute. The data was analyzed in Microsoft Excel, using the slope between 30 and 59 minutes. The average of the no-enzyme wells (background) was subtracted from the data. The background-subtracted slope data was converted to % activity using the average of wells with enzyme and DMSO vehicle. IC50 values were calculated using GraphPad software (Sigmoidal dose response, variable slope equation).
Compounds listed in Table D2 were tested in the FAAH Counterscreen of Example 21

Where [5] appears, read: Method A: starting concentration of 100 μM.

Consider `O=C(Oc1ccc([N+](=O)[O-])cc1)N1CCC(C(O)(c2ccc3c(c2)OCO3)c2ccc3c(c2)OCO3)CC1` [JZL-184, reference compound], for which, in data set [1], the “degree to which MAGL enzymatic activity returned following washout of test compounds” value is on record as “complete lack of return of MAGL enzymatic activity” and the “% MAGL activity returning after washout” value is recorded as less than 1%. For the same compound, in data set [2] (at 30, 60 & 90 min), the “mechanical allodynia (Threshold, g) vs Vehicle control” value is listed as “significant decrease in mechanical allodynia”. For the same compound, the Clinical observation result in data set [2] (post IP administration) is listed as “mild hypolocomotion”. The “mechanical allodynia (Threshold, g) vs Vehicle control” value in data set [3] is “significant decrease in mechanical allodynia”.

For orientation: IC50 means the concentration at which inhibition is half-maximal. Regarding `O=C(c1cc(O)ccc1F)N1CC2(CC(n3cc(C4CC4)c(-c4ccccc4F)n3)C2)C1` [Compound 493], the IC50 in data set [4] (Method B: starting concentration of 10 μM) was more than 10 µM. In addition, in data set [1], the “degree to which MAGL enzymatic activity returned following washout of test compounds” value is on record as 47 and the “% MAGL activity returning after washout” value is less than 50%.

Take `COc1ccc(F)c(C(=O)N2CC3(CC(c4cc(C)nn4-c4ccccc4C)C3)C2)c1` [Compound 123, (2-fluoro-5-methoxyphenyl)(6-(3-methyl-1-(o-tolyl)-1H-pyrazol-5-y1)-2-azaspiro[3.3]heptan-2-yl)methanone]: the IC50 in data set [4] (setting [5]) was more than 10 µM.

Turning to `O=C(Oc1ccc([N+](=O)[O-])cc1)N1CCN(Cc2cccc(Oc3ccccc3)c2)CC1` [reference compound], the IC50 in data set [4] (setting [5]) was 0.459 µM.

As to `Cc1ccccc1-n1nc(C2CC3(C2)CN(C(=O)c2cc(O)ccc2F)C3)cc1C` [Compound 117], the concentration for half-maximal inhibition (IC50) in data set [4] (setting [5]) is more than 10 µM.

These data come from patent US20250170101A1, “MONOACYLGLYCEROL LIPASE INHIBITORS AND USE THEREOF FOR THE TREATMENT AND MANAGEMENT OF PAIN AND RELATED CONDITIONS” (Psy Therapeutics, Inc., priority 2021, published 2025).
